We go through one compound from article PMC10102643, “A mass balance study of [^14C]SHR6390 (dalpiciclib), a selective and potent CDK4/6 inhibitor in humans” (Frontiers in Pharmacology, 2023).

This series in a line: Quantitative metabolite radioprofiling in pooled plasma, urine and stool (UHPLC-FC / HRMS). Type of series: in vivo, human. As to conditions: pooled 0–168 h stool.

Method: The plasma sample (15 mL) after pooled was added 15 mL methanol and 15 mL acetonitrile and centrifugation (3,500 rpm, 10 min, 4°C). Extract the centrifuged solid with 7.5 mL water and 22.5 mL methanol acetonitrile (50:50, v: v). The first two extracted supernatants were combined and concentrated. The concentration of the substance is at 200 μL Acetonitrile water (20:80, v: v) was dissolved again and centrifuged again (3,600 rpm, 10 min, 4°C). Part of the supernatant was injected into the UHPLC-FC (Fraction collector) system (Thermo). The eluent from the UHPLC was collected into the Deepwell LumaPlate 96 (PerkinElmer) at the rate of 10 s per well within minutes. The total collection time is 35 min. The plates were dried by Integrated SpeedVac (Thermo), and the radiation value of each well were detected by a microplate reader (Sense Beta Hidex, Finland). Data were reconstructed to radio-chromatogram by Laura software (Lablogic, United Kingdom) to give the radio profiling of plasma.
The combined samples were centrifuged, concentrated by N2 and dissolved in a 200 μL mixture of 40 mL acetonitrile and 160 mL-water, and 120 μL was injected into the UHPLC-FC system (Thermo). Other operation steps are the same as those of plasma.
Add 6 mL methanol acetonitrile (50:50, v: v) to the combined fecal homogenate (2 g) sample. The mixture was then whirled (1 min) and centrifuged6 (3,500 rpm, 10 min, 4°C). […]

Consider `CC(=O)c1c(C)c2cnc(Nc3ccc(C(CCN)CCO)cn3)nc2n(C2CCCC2)c1=O` (stereo not shown) [M464-2], for which the “abundance in stool (in words)” value was “minor metabolites”.
